A short description of data set [1]: Compound cytotoxicity, XTT-based colorimetric assay. In kind it is cell-based. Conditions: human. A digest of the protocol: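 Uninfected MT2 cells, antiviral-assay protocol without virus; XTT colorimetric readout day 4; CC50 reported.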
The subject of data set [2] is recombinant NL4-3 virus (nef section replaced with Renilla luciferase gene) in MT-2 cells. Description: HIV cell culture assay (antiviral activity, luciferase readout). In kind it is cell-based. Conditions: Renilla, NL43, MT-2 cells infected for 4-5 days with recombinant NL4-3 Renilla luciferase virus. The gist of the method:
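EC50 was derived by median-effect fitting of Renilla luciferase signal from MT-2 cells. These cells were infected for 4–5 days with NL4-3 reporter virus (nef partly replaced by luciferase; made in 293T cells) in the presence of serially diluted compound. Activity was quantified with a live-cell luciferase substrate.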

Where [3] appears, read: uninfected MT2 cells, day 4, XTT, read-out: CC50.

Like-named read-outs stand apart in the source and are kept apart here. Bounds are passed on as bounds.

Turning to `CS(=O)(=O)Nc1nn(CCN2CCC(F)(C(F)(F)F)C2)c2c(-n3c([C@H](Cc4cc(F)cc(F)c4)NC(=O)Cn4nc(C(F)F)c5c4C(F)(F)[C@@H]4C[C@H]54)nc4nc(C5CCC(F)(F)CC5)ccc4c3=O)ccc(Cl)c12` (stereo partly drawn) [Example 191, N-[(1S)-1-[(3P)-3-(4-chloro-1-{2-[3-fluoro-3-(trifluoromethyl)pyrrolidin-1-yl]ethyl}-3-methanesulfonamido-1H-indazol-7-yl)-7-(4,4-difluorocyclohexyl)-4-oxo-3H,4H-pyrido[2,3-d]pyrimidin-2-yl]-2-(3,5-difluorophenyl)ethyl]-2-[(2S,4R)-9-(difluoromethyl)-5,5-difluoro-7,8-diazatricyclo[4.3.0.0^2,^4]nona-1(6),8-dien-7-yl]acetamide], the CC50 at 4 days in data set [1] (setting [3]) is above 50000 pM. In addition, the half-maximal effective concentration (EC50) in data set [2] stood at 24 pM.

With `CS(=O)(=O)Nc1nn(CCN2CCC(C(F)(F)F)C2)c2c(-n3c([C@H](Cc4cc(F)cc(F)c4)NC(=O)Cn4nc(C(F)F)c5c4C(F)(F)[C@@H]4C[C@H]54)nc4nc(C5CCC(F)(F)CC5)ccc4c3=O)ccc(Cl)c12` (stereo partly drawn) [Example 199, N-[(1S)-1-[(3P)-3-(4-chloro-3-methanesulfonamido-1-{2-[3-(trifluoromethyl)pyrrolidin-1-yl]ethyl}-1H-indazol-7-yl)-7-(4,4-difluorocyclohexyl)-4-oxo-3H,4H-pyrido[2,3-d]pyrimidin-2-yl]-2-(3,5-difluorophenyl)ethyl]-2-[(2S,4R)-9-(difluoromethyl)-5,5-difluoro-7,8-diazatricyclo[4.3.0.0^2,^4]nona-1(6),8-dien-7-yl]acetamide], the CC50 at 4 days in data set [1] (setting [3]) was above 50000 pM. For the same compound, the EC50 in data set [2] came out at 23 pM.

`CC1(F)CCN(CCn2nc(NS(C)(=O)=O)c3c(Cl)ccc(-n4c([C@H](Cc5cc(F)cc(F)c5)NC(=O)Cn5nc(C(F)F)c6c5C(F)(F)[C@@H]5C[C@H]65)nc5nc(C6CCC(F)(F)CC6)ccc5c4=O)c32)C1` (stereo partly drawn) [Example 211, N-[(1S)-1-[(3P)-3-{4-chloro-1-[2-(3-fluoro-3-methylpyrrolidin-1-yl)ethyl]-3-methanesulfonamido-1H-indazol-7-yl}-7-(4,4-difluorocyclohexyl)-4-oxo-3H,4H-pyrido[2,3-d]pyrimidin-2-yl]-2-(3,5-difluorophenyl)ethyl]-2-[(2S,4R)-9-(difluoromethyl)-5,5-difluoro-7,8-diazatricyclo[4.3.0.0^2,^4]nona-1(6),8-dien-7-yl]acetamide]: in data set [1] (setting [3]), the CC50 at 4 days was above 50000 pM. In addition, the EC50 in data set [2] was 12 pM.

In the case of `CS(=O)(=O)Nc1nn(CCN2CC3C(C2)C(F)(F)C3(F)F)c2c(-n3c([C@H](Cc4cc(F)cc(F)c4)NC(=O)Cn4nc(C(F)F)c5c4C(F)(F)[C@@H]4C[C@H]54)nc4nc(C5CCC(F)(F)CC5)ccc4c3=O)ccc(Cl)c12` (stereo partly drawn) [Example 214, N-[(1S)-1-[(3P)-3-[4-chloro-3-methanesulfonamido-1-(2-{6,6,7,7-tetrafluoro-3-azabicyclo[3.2.0]heptan-3-yl}ethyl)-1H-indazol-7-yl]-7-(4,4-difluorocyclohexyl)-4-oxo-3H,4H-pyrido[2,3-d]pyrimidin-2-yl]-2-(3,5-difluorophenyl)ethyl]-2-[(2S,4R)-9-(difluoromethyl)-5,5-difluoro-7,8-diazatricyclo[4.3.0.0^2,^4]nona-1(6),8-dien-7-yl]acetamide], the half-maximal cytotoxic concentration (CC50) at 4 days in data set [1] (setting [3]) is above 50000 pM. Further, the EC50 in data set [2] was 15 pM.

Turning to `CS(=O)(=O)Nc1nn(CCN2CCOCC2)c2c(-n3c([C@H](Cc4cc(F)cc(F)c4)NC(=O)Cn4nc(C5CC5)c5c4C[C@@H]4C[C@H]54)nc4nc(C5CCC(F)(F)CC5)cc(C(F)F)c4c3=O)ccc(Cl)c12` [Example 227, N-[(1S)-1-[(3P)-3-{4-chloro-3-methanesulfonamido-1-[2-(morpholin-4-yl)ethyl]-1H-indazol-7-yl}-7-(4,4-difluorocyclohexyl)-5-(difluoromethyl)-4-oxo-3H,4H-pyrido[2,3-d]pyrimidin-2-yl]-2-(3,5-difluorophenyl)ethyl]-2-[(2S,4S)-9-cyclopropyl-7,8-diazatricyclo[4.3.0.0^2,^4]nona-1(6),8-dien-7-yl]acetamide], the CC50 at 4 days in data set [1] (setting [3]) was above 50000 pM. In data set [2], the concentration for a half-maximal effect (EC50) was determined as 16 pM.

On to `Cc1cc(C2CCC(F)(F)CC2)nc2nc([C@H](Cc3cc(F)cc(F)c3)NC(=O)Cn3nc(C4CC4)c4c3C[C@@H]3C[C@H]43)n(-c3ccc(Cl)c4c(NS(C)(=O)=O)nn(CCN5CCC(C)(F)C5)c34)c(=O)c12` (stereo partly drawn) [Example 280, N-[(1S)-1-[(3P)-3-{4-chloro-1-[2-(3-fluoro-3-methylpyrrolidin-1-yl)ethyl]-3-methanesulfonamido-1H-indazol-7-yl}-7-(4,4-difluorocyclohexyl)-5-methyl-4-oxo-3H,4H-pyrido[2,3-d]pyrimidin-2-yl]-2-(3,5-difluorophenyl)ethyl]-2-[(2S,4S)-9-cyclopropyl-7,8-diazatricyclo[4.3.0.0^2,^4]nona-1(6),8-dien-7-yl]acetamide], for which the CC50 at 4 days in data set [1] (setting [3]) is above 50000 pM. Further, in data set [2], the EC50 is 6 pM.

Turning to `Cc1cc(C2CCC(F)(F)CC2)nc2nc([C@H](Cc3cc(F)cc(F)c3)NC(=O)Cn3nc(C(F)F)c4c3C(F)(F)[C@@H]3C[C@H]43)n(-c3ccc(Cl)c4c(NS(C)(=O)=O)nn(CCN5CC6C(C5)C6(F)F)c34)c(=O)c12` (stereo partly drawn) [Example 312, N-[(1S)-1-[(3P)-3-[4-chloro-1-(2-{6,6-difluoro-3-azabicyclo[3.1.0]hexan-3-yl}ethyl)-3-methanesulfonamido-1H-indazol-7-yl]-7-(4,4-difluorocyclohexyl)-5-methyl-4-oxo-3H,4H-pyrido[2,3-d]pyrimidin-2-yl]-2-(3,5-difluorophenyl)ethyl]-2-[(2S,4R)-9-(difluoromethyl)-5,5-difluoro-7,8-diazatricyclo[4.3.0.0^2,^4]nona-1(6),8-dien-7-yl]acetamide], the CC50 at 4 days in data set [1] (setting [3]) is above 50000 pM. For the same compound, the EC50 in data set [2] came to 21 pM.

Consider `COCCCn1nc(NS(C)(=O)=O)c2c(Cl)ccc(-n3c([C@H](Cc4cc(F)cc(F)c4)NC(=O)Cn4nc(C(F)F)c5c4C(F)(F)[C@@H]4C[C@H]54)nc4nc(C5CCC(F)(F)CC5)cc(NCCC5CCCCO5)c4c3=O)c21` (stereo partly drawn) [Example 563, N-[(1S)-1-[(3P)-3-[4-chloro-3-methanesulfonamido-1-(3-methoxypropyl)-1H-indazol-7-yl]-7-(4,4-difluorocyclohexyl)-5-{[2-(oxan-2-yl)ethyl]amino}-4-oxo-3H,4H-pyrido[2,3-d]pyrimidin-2-yl]-2-(3,5-difluorophenyl)ethyl]-2-[(2S,4R)-9-(difluoromethyl)-5,5-difluoro-7,8-diazatricyclo[4.3.0.0^2,^4]nona-1(6),8-dien-7-yl]acetamide], for which, in data set [1] (setting [3]), the CC50 at 4 days is above 20000 pM. Further, the EC50 in data set [2] is 19 pM.

As to `COCCCn1nc(NS(C)(=O)=O)c2c(Cl)ccc(-n3c([C@H](Cc4cc(F)cc(F)c4)NC(=O)Cn4nc(C(F)F)c5c4C(F)(F)[C@@H]4C[C@H]54)nc4nc(C5CCC(F)(F)CC5)cc(NCCC5CCO5)c4c3=O)c21` (stereo partly drawn) [Example 564, N-[(1S)-1-[(3P)-3-[4-chloro-3-methanesulfonamido-1-(3-methoxypropyl)-1H-indazol-7-yl]-7-(4,4-difluorocyclohexyl)-5-{[2-(oxetan-2-yl)ethyl]amino}-4-oxo-3H,4H-pyrido[2,3-d]pyrimidin-2-yl]-2-(3,5-difluorophenyl)ethyl]-2-[(2S,4R)-9-(difluoromethyl)-5,5-difluoro-7,8-diazatricyclo[4.3.0.0^2,^4]nona-1(6),8-dien-7-yl]acetamide], the cytotoxic concentration (CC50) at 4 days in data set [1] (setting [3]) is above 20000 pM. For the same compound, the EC50 in data set [2] came to 12 pM.

The compound `Cc1cc(C2(F)CCC(F)(F)CC2)nc2nc([C@H](Cc3cc(F)cc(F)c3)NC(=O)Cn3nc(C(F)F)c4c3C(F)(F)[C@@H]3C[C@H]43)n(-c3ccc(Cl)c4c(NS(C)(=O)=O)nn(CCN5CC6CC(C5)O6)c34)c(=O)c12` [Example 588, N-[(1S)-1-[(3P)-3-[4-chloro-3-methanesulfonamido-1-(2-{6-oxa-3-azabicyclo[3.1.1]heptan-3-yl}ethyl)-1H-indazol-7-yl]-5-methyl-4-oxo-7-(1,4,4-trifluorocyclohexyl)-3H,4H-pyrido[2,3-d]pyrimidin-2-yl]-2-(3,5-difluorophenyl)ethyl]-2-[(2S,4R)-9-(difluoromethyl)-5,5-difluoro-7,8-diazatricyclo[4.3.0.0^2,^4]nona-1(6),8-dien-7-yl]acetamide] showed a CC50 at 4 days in data set [1] above 20000 pM. Further, the concentration for a half-maximal effect (EC50) in data set [2] is 8 pM.

With `Cc1cc(C2(F)CCC(F)(F)CC2)nc2nc([C@H](Cc3cc(F)cc(F)c3)NC(=O)Cn3nc(C4CC4)c4c3C[C@@H]3C[C@H]43)n(-c3ccc(Cl)c4c(NS(C)(=O)=O)nn(CCN5CC6CC(C5)O6)c34)c(=O)c12` [Example 591, N-[(1S)-1-[(3P)-3-[4-chloro-3-methanesulfonamido-1-(2-{6-oxa-3-azabicyclo[3.1.1]heptan-3-yl}ethyl)-1H-indazol-7-yl]-5-methyl-4-oxo-7-(1,4,4-trifluorocyclohexyl)-3H,4H-pyrido[2,3-d]pyrimidin-2-yl]-2-(3,5-difluorophenyl)ethyl]-2-[(2S,4S)-9-cyclopropyl-7,8-diazatricyclo[4.3.0.0^2,^4]nona-1(6),8-dien-7-yl]acetamide], in data set [1], the CC50 at 4 days is above 20000 pM. For the same compound, the EC50 in data set [2] came to 6 pM.

These data come from patent US12594276B2, “Inhibitors of human immunodeficiency virus replication” (ViiV Healthcare UK (No.5) Limited, priority 2024, dated 2026).
